Data reported in patent US20190177279A1, “CARBOXYLIC ACID AROMATIC 1,2-CYCLOPROPYLAMIDES” (Bayer Pharma Aktiengesellschaft, priority 2017, published 2019).

Legend:
[1] = tested on: stimulated IMR-90 cells; experiment: Cell viability, CellTiter-Glo Luminescent Assay; assay type: cell-based, human
Procedure: IMR-90 cells were cultured in Eagle's Minimum Essential Medium (EMEM) containing 2 mM L-glutamine, 1 g/L glucose, 1.5 g/L NaHCO3, 1 mM sodium pyruvate and non-essential amino acids (ATCC, 30-2003™) supplemented with 10% FBS (Biochrom, 50615) and 50 U/mL Penicillin, 50 μg/mL Streptomycin (PAA, P11-010). The assay was performed in EMEM and a cell density of […] IMR-90 cells/96-well. The compound examples were serially diluted in 100% DMSO and evaluated at 8 different concentrations within the range of 3 nM and 10 μM and a final DMSO concentration of 0.4%. The IMR-90 cells were incubated with the respective concentration of the compound for 30 min. […] The amount of IL-6 and IL-8 in the supernatant was determined using the Human ProInflammatory Panel II (4-Plex) (MSD, K15025B) according to manufacturer's instruction. […] Plates were washed three times with phosphate-buffered saline (PBS; 137 mM NaCl, 2.7 mM KCl, 6.5 mM Na2HP04, 1.7 mM KH2P04) containing 0.05% Tween-20 (Bio-Rad, 161-0781) and electrochemiluminescence detected using the MSD Sector Imager 6000 plate reader. The cell viability was measured using the CellTiter-Glo Luminescent Assay (Promega, G7571) following the manufacturers protocol. […] After incubation and shaking for 10 minutes luminescent signal was measured which was proportional to the amount of ATP present. […]

[2] = tested on: IL-8 secretion; experiment: Bradykinin B1 receptor agonist-induced secretion of IL-8 in human IMR-90 cells; assay type: cell-based; conditions: 0.1 μM Lys-[Des-Arg9]Bradykinin and 0.1 μM Sar-[D-Phe8]-des-Arg9-Bradykinin, 5 hours
Excerpt: Inhibitory Activity on Bradykinin B1 Receptor Agonist-Induced Secretion of IL-6 and IL-8 in Human IMR-90 Cells
The effect of the compound examples on secretion of the cytokine IL-6 and IL-8 was investigated in the human foetal lung fibroblast IMR-90 cell line. Here the induction of the cytokine secretion was induced by the Bradykinin B1 receptor agonists Lys-[Des-Arg9]Bradykinin (CAS 71800-36-7, Tocris Bioscience) and Sar-[D-Phe8]-des-Arg9-Bradykinin (CAS 126959-88-4, Tocris Bioscience) leading to the activation of the Bradykinin B1-driven signalling pathway. […]
IMR-90 cells were cultured in Eagle's Minimum Essential Medium (EMEM) containing 2 mM L-glutamine, 1 g/L glucose, 1.5 g/L NaHCO3, 1 mM sodium pyruvate and non-essential amino acids (ATCC, 30-2003™) supplemented with 10% FBS (Biochrom, 50615) and 50 U/mL Penicillin, 50 μg/mL Streptomycin (PAA, P11-010). […] The compound examples were serially diluted in 100% DMSO and evaluated at 8 different concentrations within the range of 3 nM and 10 μM and a final DMSO concentration of 0.4%. […] The amount of IL-6 and IL-8 in the supernatant was determined using the Human ProInflammatory Panel II (4-Plex) (MSD, K15025B) according to manufacturer's instruction. […] The cell viability was measured using the CellTiter-Glo Luminescent Assay (Promega, G7571) following the manufacturers protocol. […]

IC50 [2]: 185 nM
SMILES: O=C(O)c1cc(NC(=O)C2CC2c2ccc(Cl)cc2)cc(F)c1-c1cnn(C2CCC2)c1 (racemic) [Example 2, 5-({[2-(4-chlorophenyl)cyclopropyl]carbonyl}amino)-2-(1-cyclobutyl-1H-pyrazol-4-yl)-3-fluorobenzoic acid]
effect on the cell viability [1]: no effect
